Results as given in ChEMBL document CHEMBL4715804, “A Fluorescence Polarization Biophysical Assay for the Naegleria DNA Hydroxylase Tet1” (ACS Med Chem Lett, 2016).
Calls of active or inactive are those of the source. The rule behind the calls is not given here.

How the values were obtained:
[1] = (§1) Displacement of sodium 5-(3-(8-(3-carboxy-N-hydroxyacrylamido)octyl)thioureido)-2-(6-hydroxy-3-oxo-3H-xanthen-9-yl)benzoate from Naegleria Tet-1 incubated for 20 mins followed by sodium 5-(3-(8-(3-carboxy-N-hydroxyacrylamido)octyl)thioureido)-2-(6-hydroxy-3-oxo-3H-xanthen-9-yl)benzoate addition and further incubated 4 hrs and measured upto 20 hrs by competition fluorescence polarization assay
[2] = Binding affinity to Naegleria Tet1 assessed as dissociation constant incubated for 4 hrs and measured upto 20 hrs by fluorescence polarization assay
Naegleria = assay: as §1, with “Tet-1 at 5 mM” for “Tet-1”; conditions: time hrs <=20

Row | IC50 [1] [µM] | Ki [1] [µM] | Kd [2] [µM] | inhibition (Naegleria) | Structure (SMILES)
1 | 49 | 16 |  |  | O=C(O)CNC(=O)C(=O)O [N-OXALYLGLYCINE]
2 |  |  | 0.25 |  | O=C(O)/C=C/C(=O)N(O)CCCCCCCCNC(=S)Nc1ccc(-c2c3ccc(=O)cc-3oc3cc(O)ccc23)c(C(=O)O)c1
3 | 27 | 9 |  |  | O=C(O)c1ccnc(C(=O)O)c1
4 | 250 | 83 |  |  | O=C(O)CCC(=O)C(=O)O [ALPHA-KETOGLUTARIC ACID]
5 |  |  |  | inactive | Cc1cn([C@H]2C[C@H](O)[C@@H](CO)O2)c(=O)nc1N
6 | 5200 | 1700 |  |  | O=C(O)CC[C@@H](O)C(=O)O
7 |  |  |  | inactive | Nc1nc(=O)n([C@H]2C[C@H](O)[C@@H](CO)O2)cc1CO
